In article PMC4770093, “The role of kinetic context in apparent biased agonism at GPCRs” (Nature Communications, 2016):
Read-outs that look alike come from different tables or passages of the source.

Legend:
[1] = biological target: SNAP-tagged human dopamine D2L (Homo sapiens, UniProt P14416); test: Tag-lite PPHT-red competition kinetic binding (HTRF); details: PPHT-red tracer, Tag-lite; for koff: 100 μM GppNHp, 37 °C; for Kd: read-out: pKd (affinity determined from kinetic parameters) (converted)
Experimental: To terbium label the SNAP-CHO-D2L cells, cell culture medium was removed from the T175 cm^2 flasks containing confluent adherent SNAP-CHO-D2L cells. Twelve millilitres of Tag-lite labelling medium containing 100 nM of SNAP-Lumi4-Tb was added to the flask and incubated for 1 h at 37 °C under 5% CO2. Cells were then washed 2 × in 15 ml PBS (GIBCO, Invitrogen, Paisley, UK) to remove the excess of SNAP-Lumi4-Tb and detached using 5 ml of enzyme-free Hank's-based cell dissociation buffer (GIBCO, Invitrogen, Paisley, UK) and collected in a vial containing 5 ml of DMEM/Nutrient F-12 Ham, 2 mM glutamine supplemented 10% FCS. Cells were pelleted by centrifugation (5 min at 1,500 r.p.m.) and the pellets were frozen to −80 °C before preparation of membranes.
All subsequent steps described were conducted at 4 °C, to avoid receptor degradation. Twenty millilitres of wash buffer (10 mM HEPES and 10 mM EDTA pH 7.4) was added to the pellet of terbium-labelled cells (equivalent to 1 × t175 cm^2). […] The supernatant was discarded and the pellet was homogenized and centrifuged as described above in wash buffer. The final pellet was suspended in ice-cold 10 mM HEPES and 0.1 mM EDTA pH 7.4, at a concentration of 5–10 mg m^−1. Protein concentration was determined by the bicinchoninic acid assay using BSA as a standard and aliquots maintained at −80 °C until required. Before their use, the frozen membranes were thawed and the membranes suspended in the assay buffer at a membrane concentration of 0.1 mg m^−1.
GppNHp was included to remove the G protein-coupled population of receptors that can result in two binding sites in membrane preparations, because the Motulsky–Mahan model is only appropriate for ligands competing at a single site. […] Both fluorescent ligands and unlabelled compounds were diluted in the binding assay buffer.
Kinetics acquisitions at intervals of 20 s were recorded using the standard settings of the reader for HTRF measurements. […] Specific binding was determined by subtracting the nonspecific HTRF ratio from the total HTRF ratio.
To accurately determine association rate (kon) and dissociation rate (koff) values, the observed rate of association (kob) was calculated using at least four different concentrations of PPHT-red. The appropriate concentration of PPHT-red was incubated in a 384-well Optiplate with human SNAP-D2LR-CHO cell membranes (2 μg per well) in assay binding buffer at 37 °C (final assay volume, 40 μl). The degree of PPHT-red bound to the receptor was assessed at multiple time points by HTRF detection, to allow construction of association kinetic curves. The resulting data were globally fitted to the association kinetic model (equation (8)) to derive a single best-fit estimate for kon and koff as described under ‘Data analysis'.
On the same 384-well Optiplate plate, the kinetic parameters of unlabelled ligand were assessed using a competition kinetic binding assay. This approach involves the simultaneous addition of both fluorescent ligand and competitor to receptor preparation so that at t=0 all receptors are unoccupied. […] The degree of PPHT-red bound to the receptor was assessed at multiple time points by HTRF detection. Nonspecific binding was determined as the amount of HTRF signal detected in the presence of spiperone (1 μM) and was subtracted from each time point. Each time point was conducted on the same 384-well plate incubated at 37 °C with shaking (100 r.p.m.) after every cycle.
Data were globally fitted using equation (7), to simultaneously calculate kon and koff.

[2] = test system: D2R; test: Simulation of receptor occupancy over time from kon and koff; details: simulation with a KD concentration of each agonist
Excerpt: We extended these studies with a Tag-lite receptor binding assay using a D2R construct with an amino-terminal SNAP tag and the fluorescently labelled agonist (±)-4′-amino-2-(N-phenethyl-N-propyl)-amino-5-hydroxytetralin (PPHT). […] The association rate of a ligand is often thought to be diffusion limited. […] Using these kinetic parameters, we performed a simulation to estimate the receptor occupancy of a KD concentration of each agonist over time (Fig. 4e).
Kinetic binding parameters of kon (a), koff (b) and t1/2 (c) were determined in a competition kinetic binding assay using a Tag-lite binding assay and the fluorescently labelled agonist PPHT as the tracer ligand (Supplementary Table 6). […] All values are expressed as mean±s.e.m. from three experiments. (e) The values of kon and koff obtained in the competition kinetic assay were used to simulate receptor occupancy over time using equation (9) and the concentration of ligand equivalent to its KD (see Supplementary Table 6).
where Ymax reflects maximum binding of a concentration of ligand and kob is determined by equation (8).

[3] = biological target: T1, D2LR (Homo sapiens, UniProt P14416); test: Gαi1 G protein activation (BRET); assay type: cell-based; parameters: expressed in transfected cells
Experimental: G protein activation. Flp-In-CHO cells stably expressing the D2LR were seeded at a density of 2,000,000 cells per 10-cm dish and were transfected the following day using polyethylenimine as the transfection reagent. […] Twenty-four hours after transfection, the cells were plated into 96-well CulturPlates (PerkinElmer) and grown overnight. The cells were equilibrated in Hank's balanced salt solution at 37 °C before starting the experiment. The cells were stimulated with the agonists for the indicated timeframes when the BRET readings were captured. Coelenterazine (Promega) was added at a final concentration of 5 μM at least 3 min before measurement. […] Net BRET was determined by subtraction of the vehicle control from the agonist-induced response.

[4] = biological target: T1, D2LR; test: Quantification of biased agonism between pathways (operational model, LogBias); assay type: cell-based; parameters: expressed in transfected cells
Excerpt: where Top and Bottom represent the maximal and minimal asymptote of the dose–response curve, [A] is the molar concentration of agonist and EC50 is the molar concentration of agonist required to give a response half way between bottom and top. Dose–response data were fitted to the following form of the operational model of agonism[12] to allow the quantification of biased agonism
where Em is the maximal possible response of the system, Basal is the basal level of response, KA represents the equilibrium dissociation constant of the agonist (A) and τ is an index of the signalling efficacy of the agonist that is defined as RT/KE, where RT is the total number of receptors and KE is the coupling efficiency of each agonist-occupied receptor, and n is the slope of the transducer function that links occupancy to response. The analysis assumes that the transduction machinery used for a given cellular pathway are the same for all agonists, such that the Em and transducer slope (n) are shared between agonists. Data for all compounds for each pathway were fit globally, to determine values of KA and τ. Biased agonism was quantified as previously described. […] The relative bias can then be calculated for each agonist at the two different signalling pathways by subtracting the Δlog(τ/KA) of one pathway from the other to give a ΔΔlog(τ/KA) value, which is a measure of bias. […] All affinity (pKi or pKA), potency (pEC50) and transduction ratio (log(τ/KA)) parameters were estimated as logarithms. When fold changes in bias are described, this was calculated by converting values of ΔΔlog(τ/KA) to the corresponding antilog value. […] Thus, as the application of t-tests and analyses of variance assume Gaussian distribution, estimating the parameters as logarithms allows valid statistical comparison. All results are expressed as the mean±s.e.m. As such, we performed a Brown–Forsythe test (Graphpad prism 6) to assure ourselves of equal variance when such parameters are compared.

[5] = 5 minute timepoint, Flp-In-CHO-D2LR
[6] = 5 minute timepoint, dopamine as reference agonist

T1 sequence (P14416 whole entry): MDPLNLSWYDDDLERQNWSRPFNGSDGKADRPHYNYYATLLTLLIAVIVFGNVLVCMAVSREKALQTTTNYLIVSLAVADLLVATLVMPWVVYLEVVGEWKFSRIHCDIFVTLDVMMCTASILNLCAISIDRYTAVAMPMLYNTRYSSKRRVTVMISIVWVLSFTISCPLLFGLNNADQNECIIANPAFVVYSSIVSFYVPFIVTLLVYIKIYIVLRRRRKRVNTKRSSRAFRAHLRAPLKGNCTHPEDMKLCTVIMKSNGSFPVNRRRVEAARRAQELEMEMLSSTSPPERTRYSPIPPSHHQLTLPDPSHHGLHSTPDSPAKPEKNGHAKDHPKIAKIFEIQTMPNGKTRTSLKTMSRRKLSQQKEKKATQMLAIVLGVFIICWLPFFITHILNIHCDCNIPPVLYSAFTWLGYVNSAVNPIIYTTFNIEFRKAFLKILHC
Sequence of SNAP-tagged human dopamine D2L (P14416 whole entry): as above

| SMILES | koff ([1]; read-out: koff (converted)) [s⁻¹] | Kd [1] [nM] | time to maximal receptor occupancy [2] [min] | Log(τ/KA) Gαi1 activation [3, 5] | ΔLog(τ/KA) Gαi1 activation [3, 6] | LogBias CI – pERK1/2 [4, 6] | LogBias Gαi1 – CI [4, 6] | LogBias Gαi1 – GαoB [4, 6] | LogBias Gαi1 – cAMP [4, 6] | LogBias Gαi1 – pERK1/2 [4, 6] | LogBias GαoB – CI [4, 6] | LogBias GαoB – cAMP [4, 6] | LogBias GαoB – pERK1/2 [4, 6] | LogBias cAMP – CI [4, 6] | LogBias cAMP – pERK1/2 [4, 6] | LogBias β-arr2 – CI [4, 6] | LogBias β-arr2 – Gαi1 [4, 6] | LogBias β-arr2 – GαoB [4, 6] | LogBias β-arr2 – cAMP [4, 6] | LogBias β-arr2 – pERK1/2 [4, 6] | other results |
| --- | --- | --- | --- | --- | --- | --- | --- | --- | --- | --- | --- | --- | --- | --- | --- | --- | --- | --- | --- | --- | --- |
| O=c1[nH]c2cccc(N3CCN(Cc4cccc(-c5ccccc5)c4)CC3)c2o1 [Bifeprunox, bifeprunox] | 0.000167 | 0.0501 | > 90 | 8.60 ± 0.11 | 1.43 ± 0.14 | 0.99 ± 0.14 | 1.68 ± 0.16 | 1.17 ± 0.19 | 1.61 ± 0.16 | 2.67 ± 0.18 | 0.51 ± 0.15 | 0.43 ± 0.14 | 1.50 ± 0.17 | 0.08 ± 0.11 | 1.06 ± 0.13 | -0.33 ± 0.22 | -2.01 ± 0.25 | -0.84 ± 0.24 | -0.41 ± 0.22 | 0.66 ± 0.24 |  |
| CCCN(CCC)CCc1cccc2c1CC(=O)N2 [Ropinirole, ropinirole] | 0.0433 | 1860 | ≤ 1 |  |  |  | -0.19 ± 0.15 | -0.26 ± 0.18 | -0.03 ± 0.15 |  | 0.07 ± 0.13 | 0.23 ± 0.13 |  | -0.16 ± 0.09 |  | 0.38 ± 0.21 | 0.57 ± 0.24 | 0.31 ± 0.23 | 0.54 ± 0.21 |  | Log(τ/KA) Gαi1 activation [3]: 6.75 ± 0.09; ΔLog(τ/KA) Gαi1 activation [3]: -0.43 ± 0.13; LogBias CI – pERK1/2 [4]: -0.11 ± 0.10; LogBias Gαi1 – pERK1/2 [4]: -0.31 ± 0.15; LogBias GαoB – pERK1/2 [4]: -0.04 ± 0.14; LogBias cAMP – pERK1/2 [4]: -0.27 ± 0.10; LogBias β-arr2 – pERK1/2 [4]: 0.26 ± 0.21 |
| CCCN1CCC[C@@H](c2cccc(O)c2)C1 [S-3PPP, (S)-(-)-3-(3-hydroxyphenyl)-N-propylpiperidine] |  |  | ≤ 1 | 6.60 ± 0.12 | -0.58 ± 0.15 |  | 0.64 ± 0.19 | 0.27 ± 0.21 | 0.83 ± 0.17 |  | 0.37 ± 0.18 | 0.56 ± 0.16 |  | -0.19 ± 0.13 |  |  |  |  |  |  | bias between the activation of Gαi1 and all other assays apart from the activation of GαoB ([4]; 5 min, reference dopamine): less than tenfold |
| CN1CCN(c2cccc3[nH]c(=O)oc23)CC1 [Pardoprunox, pardoprunox] |  |  | ≤ 1 | 8.10 ± 0.13 | 0.93 ± 0.16 | 0.24 ± 0.12 | 0.19 ± 0.18 | 0.48 ± 0.21 | 0.35 ± 0.17 | 0.43 ± 0.19 | -0.29 ± 0.15 | -0.13 ± 0.15 | -0.05 ± 0.16 | -0.16 ± 0.10 | 0.08 ± 0.12 | -0.28 ± 0.33 | -0.47 ± 0.36 | 0.01 ± 0.34 | -0.12 ± 0.33 | -0.04 ± 0.33 | pKd (affinity determined from kinetic parameters) [1]: 7.75; koff [1]: 0.038 ± 0.00933 s⁻¹ |
